Measurements reported in patent US7732478B2, “Methods for facilitating metabolic control” (The Trustees of Columbia University in The City of New York, priority 2005, dated 2010).

How the values were obtained:
[1] = test system: IL-1β in GCF; test: Level of IL-1β in gingival crevicular fluid (sandwich ELISA) after ketorolac oral rinse; type: in vivo, human; conditions: Ketorolac treatment, Example 11
Source text: The clinical evaluation was preceded by collection of GCF, as previously described (Lamster et al., A comparison of 4 methods of data presentation for lysosomal enzyme activity in gingival crevicular fluid. J. Clin. Periodontol., 15:347-52, 1988; Lamster et al., Correlation analysis for clinical and gingival crevicular fluid parameters at anatomically related gingival sites. J. Clin. Periodontol., 18:272-77, 1991), from the mesiolingual and mesiobuccal surfaces of the first molar tooth in each quadrant. Where the first molar was absent, the second molar was sampled. If both the first and second molar were missing, the second premolar was sampled. If there were no posterior teeth in a quadrant, no sample was taken from that quadrant.
Briefly, teeth were air-dried and isolated with cotton rolls, supragingival plaque was gently removed, and GCF was sampled with precut methylcellulose filter paper strips for 30 sec. Strips were measured for fluid volume with a calibrated Periotron 6000 (Interstate Drug Exchange, Amityville, N.Y.), then removed to separate microcentrifuge tubes containing 50 μl of phosphate-buffered saline (Tween 20). […] Following elution, each GCF sample was analyzed separately.
GCF samples were analyzed for IL-1β using a commercially-available enzyme-linked immunosorbant assay, Multikine Kit (Cistron Biotechnology, Pine Brook, N.J.). […]

[2] = test system: circulating TNF; test: Circulating TNF level (blood TNF alpha immunoassay) after ketorolac oral rinse; type: in vivo, human; conditions: oral rinse containing 0.1% Ketorolac twice daily for 6 months; type 2 diabetes and chronic periodontitis subjects
Protocol: Subjects are selected and divided into different groups as described in Examples 1 and 2. An oral rinse containing 0.1% Ketorolac was administered twice daily for 6 months to reduce the level of IL-1β in GCF in the subjects (see, Cavanaugh et al., Coordinate production of PGE2 and IL-1 beta in the gingival crevicular fluid of adults with periodontitis: its relationship to alveolar bone loss and disruption by twice daily treatment with ketorolac tromethamine oral rinse. J. Periodontal Res. 33:75-82, 1998). GCF samples are collected following the procedures of example 3 and the level of IL-1β in GCF is determined as described in example 5. Circulating TNF level is determined by measuring blood TNF level using the TNF alpha immunoassay kit (Assay Designs Inc., Ann Arbor, Mich.) following the manufacturer's instructions.

[3] = test system: HbA1c; test: HbA1c levels as indicator of metabolic control; type: in vivo, human; conditions: Ketorolac treatment, Example 11
Protocol: (§1) Glycated hemoglobin (HbA1c) levels were measured from freshly drawn anticoagulated whole blood using an automated affinity chromatography system (BioRad Micromat II, Hercules, Calif.). Serum glucose was determined by the glucose oxidase method (Roche Diagnostics, Basel, CH). […] The study is performed as described in example 8. HbA1c levels and serum glucose levels, which are used as indicators of metabolic control, are measured as described in example 6.

[4] = test system: serum glucose; test: Serum glucose levels as indicator of metabolic control; type: in vivo, human; conditions: Ketorolac treatment, Example 11
Protocol: as §1

[5] = test system: IL-1β in GCF; conditions: used as an oral rinse; cited from earlier work
[6] = test system: circulating levels of TNF-α, and IL-6; conditions: infusion of glutathione; healthy and impaired glucose tolerance individuals; cited from earlier work

SMILES | levels of IL-1β in GCF [1] | level of serum TNF [2] | HbA1c levels [3] | serum glucose levels [4] | GCF IL-1β in the oral cavity [5] | circulating cytokines following a glucose bolus administration [6]
O=C(c1ccccc1)c1ccc2n1CCC2C(=O)O (stereo not drawn) [Ketorolac] | reducing the levels of IL-1β in GCF | significant reduction | decline of HbA1c levels | decline | reduce GCF IL-1β | –
N[C@@H](CCC(=O)N[C@@H](CS)C(=O)NCC(=O)O)C(=O)O [glutathione] | – | – | – | – | – | no increase of cytokines
